Read-outs that look alike come from different tables or passages of the source.
Key:
Type in all cases: in vivo
Diabrotica balteata = Diabrotica balteata (corn root worm) mortality test on maize sprouts; settings: 96 h, application rate 200 ppm, L2 larvae on sprayed maize sprouts, assessed 4 days after infestation
Protocol: Diabrotica balteata (Corn Root Worm):
Maize sprouts placed onto an agar layer in 24-well microtiter plates were treated with aqueous test solutions prepared from 10′000 ppm DMSO stock solutions by spraying. After drying, the plates were infested with L2 larvae (6 to 10 per well). The samples were assessed for mortality 4 days after infestation.

Euschistus heros = Euschistus heros (neotropical brown stink bug) feeding/contact activity; settings: 120 h
Protocol: Euschistus heros (Neotropical Brown Stink Bug): Feeding/Contact Activity
Soybean leaves on agar in 24-well microtiter plates were sprayed with aqueous test solutions prepared from 10′000 ppm DMSO stock solutions. After drying the leaves were infested with N2 nymphs. The samples were assessed for mortality 5 days after infestation.

Myzus persicae = Myzus persicae (green peach aphid) feeding/contact activity; settings: foliar, 144 h
Protocol: Myzus persicae (Green Peach Aphid): Feeding/Contact Activity
Sunflower leaf discs were placed onto agar in a 24-well microtiter plate and sprayed with aqueous test solutions prepared from 10′000 ppm DMSO stock solutions. After drying, the leaf discs were infested with an aphid population of mixed ages. The samples were assessed for mortality 6 days after infestation.

Plutella xylostella = Plutella xylostella (diamond back moth) feeding/contact activity; settings: 120 h
Protocol: Plutella xylostella (Diamond Back Moth): Feeding/Contact Activity
24-well microtiter plates with artificial diet were treated with aqueous test solutions prepared from 10′000 ppm DMSO stock solutions by pipetting. After drying, the plates were infested with L2 larvae (10 to 15 per well). The samples were assessed for mortality 5 days after infestation.

Spodoptera littoralis = Spodoptera littoralis (Egyptian cotton leaf worm) feeding/contact activity; settings: foliar, 72 h
Protocol: Spodoptera littoralis (Egyptian cotton leaf worm): Feeding/contact activity Cotton leaf discs were placed onto agar in 24-well microtiter plates and sprayed with aqueous test solutions prepared from 10′000 ppm DMSO stock solutions. After drying the leaf discs were infested with five L1 larvae. The samples were assessed for mortality 3 days after infestation.

Tetranychus urticae = Tetranychus urticae (two-spotted spider mite) feeding/contact activity; settings: foliar, 192 h, read-out: mortality on mixed population (mobile stages)
Protocol: Tetranychus urticae (Two-Spotted Spider Mite): Feeding/Contact Activity
Bean leaf discs on agar in 24-well microtiter plates were sprayed with aqueous test solutions prepared from 10′000 ppm DMSO stock solutions. After drying the leaf discs were infested with a mite population of mixed ages. The samples were assessed for mortality on mixed population (mobile stages) 8 days after infestation.

Thrips tabaci = Thrips tabaci (onion thrips) feeding/contact activity; settings: foliar, 144 h
Protocol: Thrips tabaci (Onion Thrips): Feeding/Contact Activity
Sunflower leaf discs were placed on agar in 24-well microtiter plates and sprayed with aqueous test solutions prepared from 10′000 ppm DMSO stock solutions. After drying the leaf discs were infested with a thrips population of mixed ages. The samples were assessed for mortality 6 days after infestation.

[1] = application rate 200 ppm, N2 nymphs on sprayed soybean leaves, assessed 5 days after infestation, read-out: mortality
[2] = application rate 200 ppm, aphid population of mixed ages on sprayed sunflower leaf discs, assessed 6 days after infestation, read-out: mortality
[3] = application rate 200 ppm, L2 larvae on treated artificial diet, assessed 5 days after infestation, read-out: mortality
[4] = application rate 200 ppm, L1 larvae on sprayed cotton leaf discs, assessed 3 days after infestation, read-out: mortality
[5] = application rate 200 ppm, mite population of mixed ages on sprayed bean leaf discs, assessed 8 days after infestation
[6] = application rate 200 ppm, thrips population of mixed ages on sprayed sunflower leaf discs, assessed 6 days after infestation, read-out: mortality

Measured: mortality at 200 ppm

Cn1nc(C(F)(F)C(F)(F)F)c(OC(F)F)c1-n1cc(-c2ccc(C(F)(F)F)c(C(=O)NC3(C#N)CC3)c2)cn1 [Compound 1, N-(1-cyanocyclopropyl)-5-[1-[4-(difluoromethoxy)-2-methyl-5-(1,1,2,2,2-pentafluoroethyl)pyrazol-3-yl]pyrazol-4-yl]-2-(trifluoromethyl)benzamide]
≥ 80%: Diabrotica balteata | Euschistus heros; [1] | Myzus persicae; [2] | Plutella xylostella; [3] | Spodoptera littoralis; [4] | Tetranychus urticae; [5] | Thrips tabaci; [6]

CN(C(=O)c1cc(-c2cnn(-c3c(OC(F)F)c(C(F)(F)C(F)(F)F)nn3C)c2)ccc1C(F)(F)F)C1(C#N)CC1 [Compound 2, N-(1-cyanocyclopropyl)-5-[1-[4-(difluoromethoxy)-2-methyl-5-(1,1,2,2,2-pentafluoroethyl)pyrazol-3-yl]pyrazol-4-yl]-N-methyl-2-(trifluoromethyl)benzamide]
≥ 80%: Diabrotica balteata | Euschistus heros; [1] | Myzus persicae; [2] | Plutella xylostella; [3] | Spodoptera littoralis; [4] | Tetranychus urticae; [5] | Thrips tabaci; [6]

CCN(C(=O)c1cc(-c2cnn(-c3c(OC(F)F)c(C(F)(F)C(F)(F)F)nn3C)c2)ccc1C(F)(F)F)C1(C#N)CC1 [Compound 3, N-(1-cyanocyclopropyl)-5-[1-[4-(difluoromethoxy)-2-methyl-5-(1,1,2,2,2-pentafluoroethyl)pyrazol-3-yl]pyrazol-4-yl]-N-ethyl-2-(trifluoromethyl)benzamide]
≥ 80%: Diabrotica balteata | Euschistus heros; [1] | Myzus persicae; [2] | Plutella xylostella; [3] | Spodoptera littoralis; [4] | Tetranychus urticae; [5] | Thrips tabaci; [6]

Cn1nc(C(F)(F)C(F)(F)F)c(OC(F)F)c1-n1cc(-c2ccc(C(F)(F)F)c(C(=O)NC3CC3)c2)cn1 [Compound 4, N-cyclopropyl-5-[1-[4-(difluoromethoxy)-2-methyl-5-(1,1,2,2,2-pentafluoroethyl)pyrazol-3-yl]pyrazol-4-yl]-2-(trifluoromethyl)benzamide]
≥ 80%: Diabrotica balteata | Euschistus heros; [1] | Myzus persicae; [2] | Plutella xylostella; [3] | Spodoptera littoralis; [4] | Tetranychus urticae; [5] | Thrips tabaci; [6]

Cn1nc(C(F)(F)C(F)(F)F)c(OC(F)F)c1-n1cc(-c2ccc(C(F)(F)F)c(C(=O)N(CC3CC3)C3(C#N)CC3)c2)cn1 [Compound 5, N-(1-cyanocyclopropyl)-N-(cyclopropylmethyl)-5-[1-[4-(difluoromethoxy)-2-methyl-5-(1,1,2,2,2-pentafluoroethyl)pyrazol-3-yl]pyrazol-4-yl]-2-(trifluoromethyl)benzamide]
≥ 80%: Euschistus heros; [1] | Myzus persicae; [2] | Plutella xylostella; [3] | Spodoptera littoralis; [4] | Thrips tabaci; [6]

CC(=O)N(C(=O)c1cc(-c2cnn(-c3c(OC(F)F)c(C(F)(F)C(F)(F)F)nn3C)c2)ccc1C(F)(F)F)C1(C#N)CC1 [Compound 6, N-acetyl-N-(1-cyanocyclopropyl)-5-[1-[4-(difluoromethoxy)-2-methyl-5-(1,1,2,2,2-pentafluoroethyl)pyrazol-3-yl]pyrazol-4-yl]-2-(trifluoromethyl)benzamide]
≥ 80%: Euschistus heros; [1] | Myzus persicae; [2] | Plutella xylostella; [3] | Spodoptera littoralis; [4] | Tetranychus urticae; [5] | Thrips tabaci; [6]

COCN(C(=O)c1cc(-c2cnn(-c3c(OC(F)F)c(C(F)(F)C(F)(F)F)nn3C)c2)ccc1C(F)(F)F)C1(C#N)CC1 [Compound 7, N-(1-cyanocyclopropyl)-5-[1-[4-(difluoromethoxy)-2-methyl-5-(1,1,2,2,2-pentafluoroethyl)pyrazol-3-yl]pyrazol-4-yl]-N-(methoxymethyl)-2-(trifluoromethyl)benzamide]
≥ 80%: Euschistus heros; [1] | Myzus persicae; [2] | Plutella xylostella; [3] | Spodoptera littoralis; [4] | Tetranychus urticae; [5] | Thrips tabaci; [6]

Cn1nc(C(F)(F)C(F)(F)F)c(OC(F)F)c1-n1cc(-c2ccc(C(F)(F)F)c(C(=O)N(CC#N)C3(C#N)CC3)c2)cn1 [Compound 8, N-(1-cyanocyclopropyl)-N-(cyanomethyl)-5-[1-[4-(difluoromethoxy)-2-methyl-5-(1,1,2,2,2-pentafluoroethyl)pyrazol-3-yl]pyrazol-4-yl]-2-(trifluoromethyl)benzamide]
≥ 80%: Euschistus heros; [1] | Myzus persicae; [2] | Plutella xylostella; [3] | Spodoptera littoralis; [4] | Tetranychus urticae; [5] | Thrips tabaci; [6]

CCOC(=O)N(C(=O)c1cc(-c2cnn(-c3c(OC(F)F)c(C(F)(F)C(F)(F)F)nn3C)c2)ccc1C(F)(F)F)C1(C#N)CC1 [Compound 9, ethyl N-(1-cyanocyclopropyl)-N-[5-[1-[4-(difluoromethoxy)-2-methyl-5-(1,1,2,2,2-pentafluoroethyl)pyrazol-3-yl]pyrazol-4-yl]-2-(trifluoromethyl)benzoyl]carbamate]
≥ 80%: Euschistus heros; in Glycine max | Myzus persicae | Plutella xylostella | Spodoptera littoralis | Tetranychus urticae | Thrips tabaci

C#CCN(C(=O)c1cc(-c2cnn(-c3c(OC(F)F)c(C(F)(F)C(F)(F)F)nn3C)c2)ccc1C(F)(F)F)C1(C#N)CC1 [Compound 10]
≥ 80%: Euschistus heros; [1] | Myzus persicae; [2] | Plutella xylostella; [3] | Spodoptera littoralis; [4] | Tetranychus urticae; [5] | Thrips tabaci; [6]
